Reference: US8722687B2, “Imidazo [1,2-A]pyridine derivatives as FGFR kinase inhibitors for use in therapy” (Astex Therapeutics Ltd, priority 2009, dated 2014)

Key:
[1] = target: T1, FGFR3 (Homo sapiens, UniProt P22607); experiment: FGFR3 in vitro kinase inhibitory activity assay; format: biochemical; conditions: read-out: FGFR3 IC50(μM) or % I
T1 construct: purchased Upstate
Protocol: FGFR3, VEGFR2 and PDGFR in vitro Kinase Inhibitory Activity Assays
Enzymes (from Upstate), prepared at 2× final concentration, were incubated with test compounds, biotinylated Flt3 substrate (biotin-VASSDNEYFYVDF) (Cell Signalling Technology Inc.) and ATP in the appropriate assay buffer (Table 1). The reaction was allowed to proceed for 3 hours (FGFR3), 1 hour (VEGFR2, PDGFR-beta) at room temperature on a plate shaker at 700 rpm before being stopped with 35 mM EDTA, pH 8 (FGFR3, VEGFR2) or 55 mM EDTA, pH 8 (PDGFR-beta). 5× detection mix/50 mM HEPES pH 7.5, 0.1% BSA, 11.34 nM Eu-anti-pY (PY20) (PerkinElmer) 74 nM SA-XL665 (Cisbio) for FGFR3, 50 mM HEPES, pH 7.5, 0.1% BSA, 11.34 nM Eu-anti-pY (PY20), 187.5 nM SA-XL665 for VEGFR2 and 50 mM HEPES, pH 7.5, 0.1% BSA, 11.34 nM Eu-anti-pY (PT66) (PerkinElmer), 375 nM SA-XL665 (Cisbio) for PDGFR-beta) was then added to each well and the plate sealed and incubated at room temperature for one hour on a plate shaker at 700 rpm. The plate was then read on a Packard Fusion plate reader or a BMG Pherastar both in TRF mode.

[2] = tested on: parental wild-type Ba/F3 cells; experiment: Ba/F3 (WT) cell proliferation assay (Alamar Blue); format: cell-based, murine; conditions: read-out: BaF3 WT prolif
Protocol: (§1) Ba/F3-TEL-FGFR3 & Ba/F3 (WT) Cell Proliferation Assays
(§2) Stably transfected Ba/F3-TEL-FGFR3 cells were plated out into black 96-well tissue culture plates with clear bottoms in RPMI medium containing 10% FBS and 0.25 mg/ml G418 at a density of 5×10^3 cells/well (200 μl per well). The parental wild-type Ba/F3 cells (DSMZ no.: ACC 300) were plated out into black 96-well tissue culture plates with clear bottoms in RPMI medium containing 10% FBS and 2 ng/ml mouse IL-3 (R&D Systems) at a density of 2.5×10^3 cells/well (200 μl per well). Plates were placed in an incubator overnight before adding the compounds the following day. Dilutions of compounds were made in DMSO starting at 10 mM and were diluted into the wells to give a final DMSO concentration of 0.1% in assay. Compounds were left on the cells for 72 hours before the plates were removed from the incubator and 20 μl of Alamar Blue™ (Biosource) was added to each well. Plates were placed in the incubator for 4-6 hours before reading plates at 535 nm (excitation)/590 nm (emission) on a Fusion plate reader (Packard). Where inhibition is high an IC50 can be determined.

[3] = target: T2, Ba/F3-TEL-FGFR3 cells (Homo sapiens, UniProt P22607); experiment: Ba/F3-TEL-FGFR3 cell proliferation assay (Alamar Blue); format: cell-based, murine; conditions: 72 hours; read-out: BaF3-TEL-FGFR3 prolif
T2 construct: fused on or other part: TEL (ETV6) N-terminal oligomerising part fused to the FGFR3 kinase part; P41212 (Transcription factor ETV6)
Protocol: as §1, §2

[4] = tested on: Ba/F3-Flt3 cells; experiment: Ba/F3-Flt3 assay (Alamar Blue); format: cell-based, murine; conditions: Mus musculus, 24 h; with 10 ng/ml murine IL3; read-out: Ba/F3-flt3 + IL3 pIC50 (converted)
Excerpt: Ba/F3, a murine interleukin-3 dependent pro-B cell line is increasingly popular as a model system for assessing both the potency and downstream signaling of kinase oncogenes, and the ability of small-molecule kinase inhibitors to block kinase activity. Facilitated by their growth properties. Ba/F3 cells have recently been adapted to high throughput assay formats for compound profiling. Further, several published approaches show promise in predicting resistance to small-molecule kinase inhibitors elicited by point mutations interfering with inhibitor binding (Ba/F3 cells and their use in kinase drug discovery; Markus Warmuth, Sungjoon Kim, Xiang-ju Gu, Gang Xia and Francisco Adria'n; Curr Opin Oncol 19:55-60).
Ba/F3-Flt3 cells (cultured in phenol red free RPMI-1640, 10% A FCS and 50 μg/ml Gentamycin at 37° C. and 5% 002) were plated at a density of 10000 cells in a total volume of 180 μl medium in a black TC-treated sterile 96-well plate (Corning). After 24 hours, drugs in different dilutions were added to a final volume of 200 μl and at a final DMSO concentration of 0.2% prior to incubation at 37° C., and 5% CO2.
After 24 h, to each well 40 μl Alamar Blue solution (Aldrich) was added and the cells were further incubated for 4 hours at 37° C. Fluorescence (ex. 544, em. 590 nm) was measured using a fluorescence reader (Labsystems) and IC50's were calculated.
In the condition containing IL3, 10 ng/ml of murine IL3 (PeproTech) was added during compound incubation.

T1 sequence (P22607 23-806): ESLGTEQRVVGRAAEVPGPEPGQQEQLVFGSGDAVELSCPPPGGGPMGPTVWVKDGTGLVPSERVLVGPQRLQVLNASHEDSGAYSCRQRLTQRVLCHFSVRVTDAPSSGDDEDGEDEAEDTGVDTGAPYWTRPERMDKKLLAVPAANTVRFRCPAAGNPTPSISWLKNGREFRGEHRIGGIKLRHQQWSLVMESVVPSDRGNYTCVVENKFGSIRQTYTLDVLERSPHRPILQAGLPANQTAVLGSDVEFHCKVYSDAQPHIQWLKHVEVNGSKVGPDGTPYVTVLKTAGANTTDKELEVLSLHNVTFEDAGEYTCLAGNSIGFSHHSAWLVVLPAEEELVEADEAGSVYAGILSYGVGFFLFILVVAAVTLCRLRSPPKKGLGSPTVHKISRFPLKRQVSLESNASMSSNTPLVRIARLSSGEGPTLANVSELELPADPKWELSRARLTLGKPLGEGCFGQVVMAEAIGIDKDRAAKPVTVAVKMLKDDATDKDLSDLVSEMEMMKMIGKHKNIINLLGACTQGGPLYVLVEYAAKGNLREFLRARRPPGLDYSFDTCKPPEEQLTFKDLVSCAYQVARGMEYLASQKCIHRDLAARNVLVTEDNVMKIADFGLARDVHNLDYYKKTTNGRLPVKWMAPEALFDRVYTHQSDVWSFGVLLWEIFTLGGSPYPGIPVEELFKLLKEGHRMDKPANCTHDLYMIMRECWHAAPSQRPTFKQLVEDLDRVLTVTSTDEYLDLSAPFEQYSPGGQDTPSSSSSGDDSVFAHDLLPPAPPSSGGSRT
T2 sequence (P22607 whole entry, change not shown, the tested form may be a part): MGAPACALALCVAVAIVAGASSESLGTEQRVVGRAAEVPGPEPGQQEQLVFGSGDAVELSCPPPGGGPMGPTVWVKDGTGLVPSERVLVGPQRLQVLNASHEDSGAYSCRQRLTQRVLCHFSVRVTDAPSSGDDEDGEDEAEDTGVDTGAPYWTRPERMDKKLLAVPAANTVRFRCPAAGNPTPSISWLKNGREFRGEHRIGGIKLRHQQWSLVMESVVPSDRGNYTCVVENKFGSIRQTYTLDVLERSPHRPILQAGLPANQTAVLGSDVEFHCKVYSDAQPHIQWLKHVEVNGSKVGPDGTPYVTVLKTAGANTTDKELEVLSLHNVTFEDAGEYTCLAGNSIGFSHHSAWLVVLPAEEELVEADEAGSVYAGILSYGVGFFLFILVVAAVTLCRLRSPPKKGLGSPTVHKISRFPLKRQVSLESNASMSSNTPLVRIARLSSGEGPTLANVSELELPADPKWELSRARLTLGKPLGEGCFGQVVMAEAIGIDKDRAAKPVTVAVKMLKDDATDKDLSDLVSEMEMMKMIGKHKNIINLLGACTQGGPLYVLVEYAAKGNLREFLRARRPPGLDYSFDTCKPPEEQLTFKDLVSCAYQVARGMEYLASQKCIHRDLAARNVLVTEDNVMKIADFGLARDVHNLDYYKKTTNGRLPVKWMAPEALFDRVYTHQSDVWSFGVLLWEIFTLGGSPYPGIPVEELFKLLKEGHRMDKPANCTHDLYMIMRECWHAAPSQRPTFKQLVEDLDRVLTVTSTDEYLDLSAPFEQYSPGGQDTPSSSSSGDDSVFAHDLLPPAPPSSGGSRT

| SMILES | IC50 [1] [µM] | GI50 [3] [nM] | IC50 [4] [nM] | inhibition at 3 µM ([2]; Mus musculus, BaF3, 72 h, % at 3.00 μM) [%] | inhibition at 10 µM ([2]; Mus musculus, BaF3, 72 h) [%] | IC50 ([2]; BaF3, 72 hours, with mouse IL-3) [nM] |
| --- | --- | --- | --- | --- | --- | --- |
| CCOc1cc(NC(=O)NCC(F)(F)F)cc(-c2cnc3cc(-c4nnc(C)o4)ccn23)c1 [Compound F-15, 1-{3-Ethoxy-5-[7-(5-methyl-[1,3,4]oxadiazol-2-yl)-imidazo[1,2-a]pyridin-3-yl]-phenyl}-3-(2,2,2-trifluoro-ethyl)-urea] | 0.025 | 370 | > 10000 | – | 23 | – |
| Cc1nnc(-c2ccn3c(-c4cc(NC(=O)NCC(F)(F)F)cc(OC5CCC5)c4)cnc3c2)o1 [Compound F-11, 1-{3-Cyclobutoxy-5-[7-(5-methyl-[1,3,4]oxadiazol-2-yl)-imidazo[1,2-a]pyridin-3-yl]-phenyl}-3-(2,2,2-trifluoro-ethyl)-urea] | 0.046 | 520 | > 10000 | – | 14 | – |
| CC(C)Oc1cc(NC(=O)NCC(F)(F)F)cc(-c2cnc3cc(N4CCC(F)(F)CC4)ccn23)c1 [Compound F-13, 1-{3-[7-(4,4-Difluoro-piperidin-1-yl)-imidazo[1,2-a]pyridin-3-yl]-5-isopropoxy-phenyl}-3-(2,2,2-trifluoro-ethyl)-urea] | 0.061 | 820 | > 10000 | – | – | 3200 |
| Cc1nnc(-c2ccn3c(-c4cc(NC(=O)NCC(F)(F)F)cc(OC(C)C)c4)cnc3c2)o1 [Compound F-5, 1-{3-Isopropoxy-5-[7-(5-methyl-[1,3,4]oxadiazol-2-yl)-imidazo[1,2-a]pyridin-3-yl]-phenyl}-3-(2,2,2-trifluoro-ethyl)-urea] | 0.0154 | 220 | > 10000 | – | 59 | – |

More lines, in order of falling IC50 [1], values ahead:

| IC50 [1] [µM] | GI50 [3] [nM] | IC50 [4] [nM] | SMILES | inhibition at 3 µM ([2]; Mus musculus, BaF3, 72 h, % at 3.00 μM) [%] | inhibition at 10 µM ([2]; Mus musculus, BaF3, 72 h) [%] | IC50 ([2]; BaF3, 72 hours, with mouse IL-3) [nM] |
| --- | --- | --- | --- | --- | --- | --- |
| 0.042 | 1580 | > 10000 | CC(C)Oc1cc(NC(=O)NCC(F)(F)F)cc(-c2cnc3cc(-c4nccc(C(C)(C)CO)n4)ccn23)c1 [Compound F-27, 1-(3-{7-[4-(2-Hydroxy-1,1-dimethylethyl)-pyrimidin-2-yl]-imidazo[1,2-a]pyridin-3-yl}-5-isopropoxy-phenyl)-3-(2,2,2-trifluoro-ethyl)-urea] | 50 | – | – |
| 0.0072 | 120 | > 10000 | CC(C)Oc1cc(NC(=O)NCC(F)(F)F)cc(-c2cnc3cc(-c4ncc(F)c(N)n4)ccn23)c1 [Compound F-1, 1-{3-[7-(4-Amino-5-fluoro-pyrimidin-2-yl)-imidazo[1,2-a]pyridin-3-yl]-5-isopropoxy-phenyl}-3-(2,2,2-trifluoro-ethyl)-urea] | – | 42 | – |
